# In US20250352555A1, “METHOD OF INCREASING IMMUNE CELL ACTIVATION AND/OR TREATING CANCER USING DIBENZOXAZEPINONES” (VASCULAR THERAPEUTICS PTY LTD, priority 2022, published 2025):
# Columns and labels:
# p-ERK (Thr^202/Tyr^204) [1] = experiment: Western blotting for p-ERK, A375 melanoma cells; type: cell-based, human; conditions: 10 or 100 nM, 24 h
# Method: (§1) Western blotting. Cells were treated with compounds and times indicated and total cell lysates were prepared in RIPA buffer. Lysates (10 μg) were resolved by SDS-PAGE and transferred to Immobilon-P polyvinylidene difluoride (PVDF) membranes (Millipore, USA).
# (§2) Membranes were blocked with 5% skim milk and incubated with rabbit monoclonal anti-c-Jun (Abcam, cat. no. ab32137; mouse, rat and human reactive) antibody, rabbit monoclonal anti-PD-1 (Abcam, cat. no. ab214421) antibody, mouse monoclonal β-actin antibody (Sigma-Aldrich, cat. no. A5316), anti-phospho-SAPK/JNK (Thr^183/Tyr^185) (98F2) (CST, cat. no. 4671) antibody, anti-phospho-p44/42 MAPK (ERK1/2) (Thr^202/Tyr^204) (D13.14.4E) (CST, cat. no. 4370) antibody, anti-phospho-p38 MAPK (Thr^180/Tyr^182) (D3F9) (CST, cat. no. 4511) antibody, anti-SAPK/JNK antibody (CST, cat. no. 9252), anti-p44/42 MAPK (ERK1/2) (137F5) antibody (CST, cat. no. […] Chemiluminescence was detected using the Western Lightning Chemiluminescence system (Thermo Scientific, USA) and ImageQuant™ LAS 4000 biomolecular imager (GE Healthcare Life Sciences, USA). Band intensity in images generated with the LAS 4000 was quantified using NIH Image J.
# (§3) The effect of BT2 on ERK phosphorylation (p-ERK) was evaluated in human melanoma cells given that MAP kinase activation is key to melanoma progression and the paucity of clinically approved ERK inhibitors. […]
# p-ERK (Thr^202/Tyr^204) [2] = experiment: Western blotting for p-ERK, MeWo melanoma cells; type: cell-based, human; conditions: 10 or 100 nM, 24 h
# Method: as §1, §2, §3
# MeWo cells [3] = experiment: Migration assay (scratch), MeWo; type: cell-based, human; conditions: 1 μM, 48 h, with greater potency than SCH772984
# Method: Migration assays. Cells were grown in medium containing 10% FBS in 6-well plates. The following day the cells were scratched with a sterile toothpick, washed with PBS, and incubated in medium containing 10% FBS and vehicle, BT2 or SCH772984 at 1 μM. At 0, 24 h and 48 h the cells were photographed under a 4× objective using an Olympus CKX41 microscope. To assess the effect of BT2 on melanoma cell migration, A375 and MeWo cells were incubated with 1 μM of BT2 or SCH772984, and A375 and MeWo migration into the denuded zone was quantified after 24 or 48 h, respectively.
# A375 cells = experiment: Invasion assay (Matrigel), A375; type: cell-based, human; conditions: 1 μM, 24 h, with greater potency than SCH772984
# Method: (§4) Invasion assays. Cells were grown in medium containing 10% FBS in 24-well plates. The following day the cells were scratched with a sterile toothpick, washed with PBS, and overlayed with 90% Matrigel (cat. no. 354230, Corning) (200 μl/well) containing vehicle, BT2 or SCH772984 at 1 μM. The cells were immediately photographed under a 10× objective using an Olympus CKX41 microscope, incubated at 37° C. for 1 h, and medium (800 μl/well) containing 10% FBS with vehicle, BT2 or SCH772984 at 1 μM was added. After 24 or 48 h, the cells were again photographed under a 10× objective using the same microscope. To assess the effect of BT2 on melanoma cell migration, A375 and MeWo cells were incubated with 1 μM of BT2 or SCH772984, and A375 and MeWo migration into the denuded zone was quantified after 24 or 48 h, respectively.
# MeWo cells [4] = experiment: Invasion assay (Matrigel), MeWo; type: cell-based, human; conditions: 1 μM, 48 h, with greater potency than SCH772984
# Method: as §4
# CD28 = target: T1, CD28 (Macaca fascicularis, UniProt Q0PDN3); experiment: Surface plasmon resonance (SPR), Biacore T200; type: binding; conditions: BT2 up to 20 μM (8-point dilution series), 12° C., 20 mM HEPES, 150 mM NaCl, 5% DMSO, pH 7.5
# T1 construct: purchased Sino Biological
# T1 sequence (Q0PDN3 19-152): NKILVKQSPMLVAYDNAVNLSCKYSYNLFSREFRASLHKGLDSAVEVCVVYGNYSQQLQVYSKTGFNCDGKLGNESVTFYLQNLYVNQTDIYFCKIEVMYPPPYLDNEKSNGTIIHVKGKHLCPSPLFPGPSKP
# Method: Surface plasmon resonance (SPR). Using a Biacore T200 (Cytiva), CD28 (Sino Biological) was immobilised onto a Series S sensor Chip CM5 (GE) by amine coupling to a level of ˜3000 RU on flow cells 2 and 4 at 25° C., with a flowrate of 10 μl/min. 0.2 M EDC+0.05 M NHS was injected for 420 s followed by CD28 (37.5 μg/ml in 10 mM acetate pH 5) for 450 s with the flowrate reduced to 2 μl/min. Unreacted NHS was blocked with an injection of 1 M ethanolamine-HCl pH 8.5 for 420 s. Flow cells 1 and 3 were used as the reference cells, activated and blocked as described above. Immobilisation running buffer was 20 mM HEPES, 150 mM NaCl, pH 7.5. The SPR run was performed at 12° C. with 20 mM HEPES, 150 mM NaCl, 5% DMSO, pH 7.5 as the running buffer. […] The concentration was confirmed using ^1H 1D NMR. […] Samples were injected for 60 s with a dissociation time of 60 s at a flow rate of 40 μl/min. Solvent correction was performed to correct for excluded volume effects. The integrity of the coupled CD28 was validated by injection of the known binding partner CD80 (Sino Biological) (Waite et al., 2020) (5 point dilution series with 2 μM top concentration).
# In T cells, the c-jun promoter is activated by anti-CD28 engagement. CD28, a homodimeric cell surface glycoprotein, is a co-stimulatory signal required for T cell activation. The inventors investigated whether BT2 might interact with CD28. […]
compound,measurement,setting,value
"CCOC(=O)Nc1ccc2c(c1)C(=O)N(CC)c1ccccc1O2 [BT2, (10-ethyl-11-oxo-10,11-dihydro-dibenzo[b,f][1,4]oxazepin-2-yl)-carbamic acid ethyl ester]","ERK phosphorylation (p-ERK, Western blot)",p-ERK (Thr^202/Tyr^204) [1],suppressed ERK phosphorylation
same,"ERK phosphorylation (p-ERK, Western blot)",p-ERK (Thr^202/Tyr^204) [2],suppressed ERK phosphorylation
same,migration into the denuded zone,MeWo cells [3],suppressed melanoma migration
same,invasion into the denuded zone of Matrigel,A375 cells,suppressed
same,invasion into the denuded zone of Matrigel,MeWo cells [4],suppressed
same,binding to CD28 (SPR sensorgram),CD28,bound to CD28 in a dose-dependent manner
